# Test results published in publication PMC10905675, “INX-315, a Selective CDK2 Inhibitor, Induces Cell Cycle Arrest and Senescence in Solid Tumors” (Cancer Discovery, 2023).
# Like-named read-outs stand apart in the source and are kept apart here.
# How the values were obtained:
# MKN1 cells = experiment: Cell cycle flow cytometry; type: cell-based; settings: 24 hours, 100 nmol/L
# Water solubility = type: physicochemical
# CDK2/cyclin A = molecular target: T1, CDK2/cyclin A (Homo sapiens, UniProt P24941); experiment: SelectScreen ZLYTE; type: biochemical; settings: INX-0315 at 100nM
# T1 construct: purchased Thermo Fisher Scientific SelectScreen (plus Nanosyn / Reaction Biology for CDK/cyclin lines)
# Text: (§1) INX-315 was first evaluated in the SelectScreen Biochemical Kinase Profiling at Thermo Fisher Scientific (Madison, WI). The primary screen consisted of INX-315 dosed at a single concentration of 100 nmol/L in 1% DMSO across each platform within the SelectScreen array of assays, LanthaScreen Eu Kinase Binding Assay; AdaptaScreen; and Z'LyteScreen using preestablished conditions at Thermo Fisher Scientific as shown in Supplementary Table S2. […] The follow-up screen consisted of 10-point dose–response curves for INX-315 from 1 µmol/L to 0.0495 nmol/L.
# IGF1R = molecular target: T2, IGF1R (Homo sapiens, UniProt P08069); experiment: SelectScreen ZLYTE; type: biochemical; settings: INX-0315 at 100nM
# T2 construct: purchased Thermo Fisher Scientific SelectScreen (plus Nanosyn / Reaction Biology for CDK/cyclin lines)
# Text: as §1
# STK4 (MST1) = molecular target: T3, STK4 (MST1) (Homo sapiens, UniProt Q13043); experiment: SelectScreen ZLYTE; type: biochemical; settings: INX-0315 at 100nM
# T3 construct: purchased Thermo Fisher Scientific SelectScreen (plus Nanosyn / Reaction Biology for CDK/cyclin lines)
# Text: as §1
# CDK5 = molecular target: T4, CDK5 (Homo sapiens, UniProt Q00535); experiment: Nanosyn biochemical assay
# T4 construct: purchased ThermoFisher PV3000
# Description: (§2) Compounds were tested in kinase assays (Nanosyn, Inc.). The assays were completed using microfluidic kinase detection technology (Caliper Assay Platform). The compounds were tested in 12-point dose–response format in singlicate at the Km for ATP. Phosphoacceptor substrate peptide concentration used was 1 µmol/L and staurosporine was used as the reference compound for all assays. Details for individual Nanosyn assays performed are provided here: […]
# CDK5/p25 = molecular target: T5, CDK5/p25 (Homo sapiens, UniProt Q00535); experiment: Nanosyn biochemical assay; settings: ATP at Km, value (SEM), read-out: IC50 (nmol/L) CDK5/p25
# T5 construct: purchased BPS 40105
# Description: as §2
# CDK4/cyclin D1 = molecular target: T6, CDK4/cyclin D1 (Homo sapiens, UniProt P11802); experiment: Nanosyn biochemical assay
# T6 construct: purchased ThermoFisher PV4400
# Description: as §2
# CDK7 = molecular target: T7, CDK7 (Homo sapiens, UniProt P50613); experiment: Nanosyn biochemical assay; settings: Supp Fig S1C, value (SEM), read-out: IC50 (nM) CDK7
# T7 construct: purchased Carna 04-108
# Description: as §2
# CDK1/cyclin B1 [1] = molecular target: T8, CDK1/cyclin B1 (Homo sapiens, UniProt P06493); experiment: Nanosyn biochemical assay
# T8 construct: purchased Millipore 14-450M
# Description: as §2
# CDK6/cyclin D3 = molecular target: T9, CDK6/cyclin D3 (Homo sapiens, UniProt Q00534); experiment: Nanosyn biochemical assay; settings: Supp Fig S1D, representative dose response curve, read-out: IC50 CDK6 - Cyclin D3
# T9 construct: purchased Carna 04-107
# Description: as §2
# CDK9/cyclin T1 [2] = molecular target: T10, CDK9/cyclin T1 (Homo sapiens, UniProt P50750); experiment: Nanosyn biochemical assay; settings: Supp Fig S1D, representative dose response curve, read-out: IC50 CDK9 - Cyclin T1
# T10 construct: purchased Carna 04-110
# Description: as §2
# CSF1R = CSF1R (Homo sapiens, UniProt P07333); experiment: SelectScreen follow-up dose-response; type: biochemical; settings: dose-response 50 pmol/L to 1 µmol/L
# Text: as §1
# all other targets = experiment: SelectScreen follow-up dose-response; type: biochemical; settings: dose-response 50 pmol/L to 1 µmol/L; kinases with ≥80% inhibition other than CDK2 complexes and CSF1R
# Text: as §1
# CDK2/cyclin A1/E1/O = CDK2/cyclin A1/E1/O (Homo sapiens, UniProt P24941); experiment: SelectScreen follow-up dose-response; type: biochemical; settings: dose-response 50 pmol/L to 1 µmol/L
# Text: as §1
# [3] = test system: CDK3/cyclin E1, CDK5 (inactive), CDK5/p25, CDK5/p35, CSF1R, MAPK15/ERK7, NTRK/TRKC, TYK2; experiment: SelectScreen primary screen; type: biochemical; settings: 100 nmol/L INX-315
# Text: as §1
# CDK2/cyclin A/A1/E1/O = experiment: SelectScreen primary screen; type: biochemical; settings: 100 nmol/L INX-315
# Text: as §1
# CDK1/cyclin B1 [4] = molecular target: T8, CDK1/cyclin B1; experiment: NanoBRET live cell target engagement; type: binding
# Description: (§3) Reaction Bio (Malvern, PA) conducted NanoBRET assays utilizing Promega NanoLuc technology with two replicates per experiment. The CDK2/E1 and CDK1/B1 values are the average of two separate experiments.
# (§4) HEK293 cells were transfected using Opti-MEM without serum containing ratios of 9.0 µg/mL of Transfection Carrier DNA, 1.0 µg/mL of NanoLuc fusion vector DNA and 1 mL of Opti-MEM without phenol red. 30 µL of FuGENE HD transfection reagent was added to each milliliter of DNA mixture to form lipid:DNA complex. After incubation for 20 minutes at room temperature, 1 part lipid/DNA complex was added to 20 parts HEK293 cells in suspension. Cells were then plated and incubated overnight before being trypsinized and resuspended at 2 × 10^5 cells/mL. NanoBRET tracer reagent was added to cells at a ratio of 1 part tracer to 20 parts cell suspension. Cells were added to a 384-well plate and incubated for 1 hour. Plates were removed and incubated at room temperature for 15 minutes to equilibrate before 3x complete substrate plus inhibitor was added. After 2–3 minutes of incubation at room temperature, donor and acceptor wavelengths (460 nm and 600 nm, respectively) were measured using an Envision 2104 plate reader.
# CDK2/cyclin E1 = molecular target: T11, CDK2/cyclin E1 (Homo sapiens, UniProt P24941); experiment: NanoBRET live cell target engagement; type: binding
# T11 construct: purchased Millipore 14-475
# Description: as §3, §4
# CDK9/cyclin T1 [5] = molecular target: T10, CDK9/cyclin T1; experiment: NanoBRET live cell target engagement; type: binding
# Description: as §3, §4
# CDK2/cyclin A1 = molecular target: T12, CDK2/cyclin A1 (Homo sapiens, UniProt P24941); experiment: NanoBRET live cell target engagement; type: binding
# T12 construct: host or cells: HEK293
# Description: as §3, §4
# [6] = test system: five lines without CCNE1 amplification (ovarian cancer); experiment: CellTiter Glo viability assay; type: cell-based; settings: 144 h, six days
# [7] = NanoBRET intracellular IC50 ratio
# T4 sequence (Q00535 whole entry): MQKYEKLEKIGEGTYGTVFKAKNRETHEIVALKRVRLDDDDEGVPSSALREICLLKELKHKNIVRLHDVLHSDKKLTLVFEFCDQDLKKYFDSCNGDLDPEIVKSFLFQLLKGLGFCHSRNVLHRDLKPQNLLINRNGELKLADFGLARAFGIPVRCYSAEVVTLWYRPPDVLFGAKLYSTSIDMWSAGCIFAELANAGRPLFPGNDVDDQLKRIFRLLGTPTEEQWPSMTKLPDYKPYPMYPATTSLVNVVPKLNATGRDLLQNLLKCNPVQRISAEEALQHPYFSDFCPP
# T4 sequence (Q15078 2-307 partner limits assumed): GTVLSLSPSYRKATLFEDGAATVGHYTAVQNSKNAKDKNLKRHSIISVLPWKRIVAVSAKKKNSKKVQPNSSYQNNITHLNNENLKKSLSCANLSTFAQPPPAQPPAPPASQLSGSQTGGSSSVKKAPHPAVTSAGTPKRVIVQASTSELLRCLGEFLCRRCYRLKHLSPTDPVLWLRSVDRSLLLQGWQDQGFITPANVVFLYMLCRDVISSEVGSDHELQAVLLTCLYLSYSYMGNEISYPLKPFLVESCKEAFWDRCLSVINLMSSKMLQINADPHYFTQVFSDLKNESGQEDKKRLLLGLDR
# T8 sequence (P06493 whole entry): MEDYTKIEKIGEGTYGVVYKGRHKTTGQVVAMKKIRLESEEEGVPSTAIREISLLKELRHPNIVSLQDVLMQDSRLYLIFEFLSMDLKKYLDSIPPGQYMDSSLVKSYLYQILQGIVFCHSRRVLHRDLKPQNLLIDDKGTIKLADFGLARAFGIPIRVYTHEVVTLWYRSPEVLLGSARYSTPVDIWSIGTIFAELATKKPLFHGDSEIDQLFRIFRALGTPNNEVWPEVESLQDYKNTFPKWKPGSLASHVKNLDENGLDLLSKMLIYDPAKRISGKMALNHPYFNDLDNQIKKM
# T8 sequence (P14635 whole entry partner): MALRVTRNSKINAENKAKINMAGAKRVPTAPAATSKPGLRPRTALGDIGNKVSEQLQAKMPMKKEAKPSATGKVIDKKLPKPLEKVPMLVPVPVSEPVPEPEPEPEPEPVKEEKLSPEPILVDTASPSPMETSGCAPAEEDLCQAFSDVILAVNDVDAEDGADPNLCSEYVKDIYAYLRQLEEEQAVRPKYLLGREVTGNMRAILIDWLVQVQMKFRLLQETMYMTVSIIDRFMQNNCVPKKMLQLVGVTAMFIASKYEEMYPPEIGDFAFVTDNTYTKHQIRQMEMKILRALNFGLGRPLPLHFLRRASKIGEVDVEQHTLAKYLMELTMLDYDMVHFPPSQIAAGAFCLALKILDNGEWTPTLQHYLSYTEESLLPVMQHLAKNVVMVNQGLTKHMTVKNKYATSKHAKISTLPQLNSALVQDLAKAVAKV
# T10 sequence (P50750 whole entry): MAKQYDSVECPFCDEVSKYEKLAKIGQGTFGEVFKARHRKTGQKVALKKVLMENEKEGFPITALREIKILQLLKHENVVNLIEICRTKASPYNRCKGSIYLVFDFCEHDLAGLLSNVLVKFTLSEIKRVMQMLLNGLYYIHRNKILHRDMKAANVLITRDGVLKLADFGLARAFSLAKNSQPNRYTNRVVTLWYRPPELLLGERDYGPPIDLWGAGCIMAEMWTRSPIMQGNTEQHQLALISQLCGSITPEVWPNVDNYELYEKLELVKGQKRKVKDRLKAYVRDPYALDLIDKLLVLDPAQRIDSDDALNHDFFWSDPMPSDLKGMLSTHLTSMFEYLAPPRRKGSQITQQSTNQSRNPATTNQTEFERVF
# T10 sequence (O60563 whole entry partner): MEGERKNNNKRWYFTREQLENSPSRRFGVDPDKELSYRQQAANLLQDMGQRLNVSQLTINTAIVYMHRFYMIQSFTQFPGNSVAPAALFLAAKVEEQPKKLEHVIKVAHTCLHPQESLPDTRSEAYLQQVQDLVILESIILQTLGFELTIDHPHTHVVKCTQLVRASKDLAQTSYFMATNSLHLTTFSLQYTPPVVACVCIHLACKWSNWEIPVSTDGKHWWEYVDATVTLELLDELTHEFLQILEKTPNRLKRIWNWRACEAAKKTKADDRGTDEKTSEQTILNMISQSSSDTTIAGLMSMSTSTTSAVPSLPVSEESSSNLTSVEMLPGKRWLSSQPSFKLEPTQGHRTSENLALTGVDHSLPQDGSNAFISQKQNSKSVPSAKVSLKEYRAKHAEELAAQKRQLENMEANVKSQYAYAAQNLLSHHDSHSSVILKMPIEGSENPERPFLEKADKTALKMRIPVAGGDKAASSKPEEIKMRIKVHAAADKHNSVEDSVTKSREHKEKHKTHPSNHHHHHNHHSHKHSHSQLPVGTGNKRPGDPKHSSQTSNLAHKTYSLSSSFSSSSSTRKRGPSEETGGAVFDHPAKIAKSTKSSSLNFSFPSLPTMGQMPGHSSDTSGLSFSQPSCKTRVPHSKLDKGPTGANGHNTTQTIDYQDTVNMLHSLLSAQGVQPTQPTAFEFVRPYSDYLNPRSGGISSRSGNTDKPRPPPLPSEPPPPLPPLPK
# T6 sequence (P11802 whole entry): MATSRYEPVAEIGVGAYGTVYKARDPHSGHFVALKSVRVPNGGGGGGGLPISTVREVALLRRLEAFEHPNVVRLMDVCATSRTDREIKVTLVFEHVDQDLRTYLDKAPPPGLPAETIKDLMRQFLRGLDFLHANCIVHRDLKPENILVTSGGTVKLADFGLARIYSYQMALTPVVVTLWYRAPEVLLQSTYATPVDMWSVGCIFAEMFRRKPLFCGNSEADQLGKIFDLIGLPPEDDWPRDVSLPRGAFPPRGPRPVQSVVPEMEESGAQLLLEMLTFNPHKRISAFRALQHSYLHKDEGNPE
# T6 sequence (P24385 whole entry partner): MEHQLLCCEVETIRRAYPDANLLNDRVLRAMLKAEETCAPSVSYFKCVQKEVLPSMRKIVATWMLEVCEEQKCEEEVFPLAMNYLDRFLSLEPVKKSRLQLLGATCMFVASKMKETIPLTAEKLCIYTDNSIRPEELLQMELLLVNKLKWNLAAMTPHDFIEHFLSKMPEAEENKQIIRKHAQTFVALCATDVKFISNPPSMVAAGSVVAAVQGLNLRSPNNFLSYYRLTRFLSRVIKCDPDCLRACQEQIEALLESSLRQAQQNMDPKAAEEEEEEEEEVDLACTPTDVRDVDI
# T7 sequence (P50613 whole entry): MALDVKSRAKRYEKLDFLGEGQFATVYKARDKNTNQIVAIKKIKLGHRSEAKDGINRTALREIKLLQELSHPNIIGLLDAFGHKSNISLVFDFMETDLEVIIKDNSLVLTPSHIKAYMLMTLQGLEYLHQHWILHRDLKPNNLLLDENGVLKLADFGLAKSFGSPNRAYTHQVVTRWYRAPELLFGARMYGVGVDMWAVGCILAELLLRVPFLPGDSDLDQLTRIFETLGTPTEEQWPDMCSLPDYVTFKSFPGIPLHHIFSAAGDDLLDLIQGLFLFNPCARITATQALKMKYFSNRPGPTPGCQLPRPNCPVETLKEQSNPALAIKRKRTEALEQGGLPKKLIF
# T7 sequence (P51946 whole entry partner): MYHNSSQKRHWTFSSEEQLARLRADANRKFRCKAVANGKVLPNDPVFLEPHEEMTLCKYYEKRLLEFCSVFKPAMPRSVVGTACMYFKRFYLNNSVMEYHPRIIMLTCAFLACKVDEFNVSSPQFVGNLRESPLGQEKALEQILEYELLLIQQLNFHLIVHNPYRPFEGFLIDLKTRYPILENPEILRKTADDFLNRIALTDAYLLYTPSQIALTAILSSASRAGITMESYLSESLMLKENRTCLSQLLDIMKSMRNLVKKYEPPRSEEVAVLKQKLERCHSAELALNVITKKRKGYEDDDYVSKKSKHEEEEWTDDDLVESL
# T7 sequence (P51948 whole entry partner): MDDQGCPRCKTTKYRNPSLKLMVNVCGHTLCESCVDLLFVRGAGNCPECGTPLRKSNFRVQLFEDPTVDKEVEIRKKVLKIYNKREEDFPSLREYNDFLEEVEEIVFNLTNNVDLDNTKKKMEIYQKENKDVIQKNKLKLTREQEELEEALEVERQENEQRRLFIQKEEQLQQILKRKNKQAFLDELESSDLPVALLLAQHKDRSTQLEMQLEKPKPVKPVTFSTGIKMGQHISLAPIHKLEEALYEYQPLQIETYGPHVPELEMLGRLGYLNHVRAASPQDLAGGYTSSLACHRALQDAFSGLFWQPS
# T3 sequence (Q13043 whole entry): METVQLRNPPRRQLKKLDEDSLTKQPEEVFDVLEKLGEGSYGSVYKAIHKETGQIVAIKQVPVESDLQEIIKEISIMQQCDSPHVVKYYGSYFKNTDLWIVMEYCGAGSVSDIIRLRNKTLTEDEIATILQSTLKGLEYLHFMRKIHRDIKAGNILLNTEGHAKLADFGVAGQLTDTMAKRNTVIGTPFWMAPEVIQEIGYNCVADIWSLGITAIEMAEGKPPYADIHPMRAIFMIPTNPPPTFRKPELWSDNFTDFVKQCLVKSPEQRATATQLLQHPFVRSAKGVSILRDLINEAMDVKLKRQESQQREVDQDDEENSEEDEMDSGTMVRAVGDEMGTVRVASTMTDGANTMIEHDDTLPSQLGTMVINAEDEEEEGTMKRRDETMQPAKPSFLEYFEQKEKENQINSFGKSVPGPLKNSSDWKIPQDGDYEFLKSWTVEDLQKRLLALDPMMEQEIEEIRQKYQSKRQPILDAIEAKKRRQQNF
smiles,measurement,setting,value
NS(=O)(=O)c1ccc(Nc2ncc3cc4n(c3n2)C2(CCCCC2)C(=O)NN4)cc1 [INX-315],cell cycle effect,MKN1 cells,strong G1 arrest
same,solubility,Water solubility,< 50 µg/mL
same,inhibition at 0.1 µM,CDK2/cyclin A,100%
same,inhibition at 0.1 µM,IGF1R,9%
same,inhibition at 0.1 µM,STK4 (MST1),26%
same,IC50,"CDK5; ATP at Km, value (SEM), read-out: IC50 (nmol/L) CDK5",23.1 nmol/L
same,IC50,"CDK5; Supp Fig S1C, value (SEM), read-out: IC50 (nM) CDK5",23.1 nmol/L
same,IC50,"CDK5; Supp Fig S1D, representative dose response curve, read-out: IC50 CDK5 - p35",23.1 nmol/L
same,IC50,CDK5/p25,21.4 nmol/L
same,IC50,"CDK4/cyclin D1; Supp Fig S1C, value (SEM), read-out: IC50 (nM) CDK4/cyclin D1",126 nM
same,IC50,"CDK4/cyclin D1; Supp Fig S1D, representative dose response curve, read-out: IC50 CDK4 - Cyclin D",127 nM
same,IC50,CDK7,> 10000 nM
same,IC50,"CDK1/cyclin B1 [1]; Supp Fig S1C, value (SEM), read-out: IC50 (nM) CDK1/B1",30 nM
same,IC50,"CDK1/cyclin B1 [1]; Supp Fig S1D, representative dose response curve, read-out: IC50 CDK1 - Cyclin B",29.1 nM
same,IC50,CDK6/cyclin D3,291 nM
same,IC50,CDK9/cyclin T1 [2],38.6 nM
same,IC50,CSF1R,2.29 nM
same,IC50,all other targets,> 10 nM
same,IC50,CDK2/cyclin A1/E1/O,≤ 4 nM
same,"inhibition of CDK3/cyclin E1, CDK5 (inactive), CDK5/p25, CDK5/p35, CSF1R, MAPK15/ERK7, NTRK/TRKC, TYK2",[3],≥ 80%
same,inhibition of CDK2/cyclin A/A1/E1/O,CDK2/cyclin A/A1/E1/O,≥ 94%
same,"Fold vs. CDK2/E1, CDK1/cyclin B1",CDK1/cyclin B1 [4]; [7],163
same,IC50,"CDK1/cyclin B1 [4]; NanoBRET, HEK293 cells, value (SD), read-out: intracellular IC50 (nmol/L) CDK1/cyclin B1",374 nmol/L
same,"Fold vs. CDK2/E1, CDK2/cyclin E1",CDK2/cyclin E1; [7],1
same,"increase of intracellular IC50 over the biochemical IC50, CDK2/cyclin E1",CDK2/cyclin E1; NanoBRET vs biochemical,4 fold
same,IC50,"CDK2/cyclin E1; NanoBRET, HEK293 cells, value (SD), read-out: intracellular IC50 (nmol/L) CDK2/cyclin E1",2.3 nmol/L
same,"Fold vs. CDK2/E1, CDK9/cyclin T1",CDK9/cyclin T1 [5]; [7],1283
same,IC50,"CDK9/cyclin T1 [5]; NanoBRET, HEK293 cells, value (SD), read-out: intracellular IC50 (nmol/L) CDK9/cyclin T1",2950 nmol/L
same,"Fold vs. CDK2/E1, CDK2/cyclin A1",CDK2/cyclin A1; [7],31
same,IC50,"CDK2/cyclin A1; NanoBRET, HEK293 cells, value (SD), read-out: intracellular IC50 (nmol/L) CDK2/cyclin A1",71 nmol/L
same,IC50,"[6]; read-out: IC50, range",159 to 3560 nM
same,IC50,[6]; read-out: mean IC50,1440 nM
